{"source": "patent US9326972B2", "about": "“Use of phenylmethimazoles, methimazole derivatives, and tautomeric cyclic thiones for the treatment of autoimmune/inflammatory diseases associated with toll-like receptor overexpression” (Ohio University, priority 2004, dated 2016)", "key": {"mice": {"tested_on": "mice", "test": "Colitis model in mice (DSS)", "format": "in vivo, mouse", "settings": "10 animals, 0.1 mg/kg, 14 days"}, "NF-κB": {"tested_on": "NF-κB", "test": "NF-κB Luc reporter gene in FRTL-5 thyrocytes", "format": "cell-based, rat", "settings": "for NF-κB Luc Relative Luciferase Activity % of Control (±15%), +C10: 6 hours", "procedure": "Poly (I:C) (the dsRNA ligand commonly used as a test compound) activates the TLR3 mediated NF-κ β/Map kinase signal pathway in FRTL-5 thyrocytes. FRTL-5 cells were transiently transfected with 100 ng of luciferase reporter pNF-κB Luc and 2 ng of internal control phRL-Tk. After 36 h, cells were incubated with 100 μg/ml poly (I:C) or endotoxin-free E. coli DNA for 6 h. Measurements were made with the Dual Luciferase Assay System (Promega). Poly (I:C) increased TLR3 mediated NF-κB mediated luciferase activity (gene expression) 6 fold; dsDNA had no effect. Further support came from electrophoretic mobility shift analyses (EMSA). When FRTL-5 thyrocytes were incubated with 100 μg/ml poly (I:C), IL-1β, TNF-α or TPA, cells lysed after 1 h, and nuclear translocation of NF-κB measured. The poly (I:C) induced p50/p65 complex formation as measured by the presence of a specific new protein/DNA complex and its inhibition by anti-p50 and p65 antibodies, but not by anti-p52, c-rel and Rel B antibodies; the complex was also supershifted by anti-p50. […] Additionally, when FRTL-5 cells were co-transfected with pCMV-BD-Elk 1 and pFR-luc, then incubated with 100 μg/ml poly (I:C) or IL-1β for 6 hrs, ELK1 transactivation was increased 2-fold by both Poly (I:C) and IL-1β when measured with the Dual Luciferase Assay System (Promega). NF-κB/MAP Kinase signals evoked by TLR3 binding dsRNA are only one portion of TLR3 functional expression.\nCells were co-transfected with ISRE-Luc and pRLTk-Int and then treated without (none) or with Poly I:C (100 μg/ml), LPS (100 ng/ml), IL-1β (10 ng/ml) TNF-α (25 ng/ml), IFN-β (100 U/ml) or IFN-γ (1000 U/ml) in the presence of DMSO (−) or C10 for 6 hours. Data were obtained using the Dual Luciferase Assay system. The effect on the ISRE element is not duplicated by an NF-κB reporter plasmid despite the similarity of the two elements: ([…])5 (SEQ ID NO:3) vs. ([…])5 (SEQ ID NO:4), respectively. Data are representative of multiple experiments.\nPlasmids for Reporter Gene Assays. Human IRF-3 was amplified from human cDNA and cloned into pCR 2.1 by the TOPO/TA (Invitrogen, Carlsbad, Calif.) cloning method, and then sequenced. IRF-3 was then excised by EcoRI digestion and subcloned into pCMV-BD (Stratagene, La Jolla, Calif.) for use in transactivation assays. To construct IFN-β-luc the human IFN-β promoter sequence was amplified from human genomic DNA (Clontech, Palo Alto, Calif.)) using Ex Taq™ Polymerase (Takara, Madison, Wis.). The PCR fragment contained human IFN-β promoter sequence from −125 to +34 relative to the transcription start site (+1) and incorporated KpnI and XhoI restriction sites at the 5′ and 3′ ends, respectively. The primers were as follows: hIFN-β (−125) KpnI (5′-[…]-3′) (SEQ ID NO:9) and hIFN-β (+34) XhoI (5′-[…]-3′). (SEQ ID NO: 10) The fragment was digested with KpnI and XhoI then ligated into a similarly digested pGL3 Basic (Promega, Madison, Wis.) vector. The human MyD88 wild and dominant negative expression vectors were kindly donated by Dr. P. E. Auron. pFR-luc (5×Gal4 DNA binding domains and minimal TATA box), ISRE-Luc, NF-κB-luc and the Elk1 trans-Reporting System were purchased from Stratagene. pRL TK-Int was purchased from Promega.\nTransient Expression Analysis. A DEAE procedure was used to transfect promoter-luciferase gene constructs and expression plasmids into FRTL-5 cells. Briefly, FRTL-5 cells were grown in 24-well plates to about 70% confluence, washed with 0.5 ml of serum-free culture medium (6H0 medium), then exposed to 125 μl of premade plasmid-DEAE mixture per well for 15 min at room temperature. The plasmid-DEAE mixture was prepared by incubating 100 ng of plasmid DNA, unless otherwise noted in individual experiments, with 3.125 μl of DEAE-Dextran (10 mg/ml) (Promega, Madison Wis.). FRTL-5 cells were incubated with this mixture for 2 hr at 37° C. in a CO2 incubator, before 2 ml of 6H5 medium was added. […]"}, "TLR3": {"tested_on": "TLR3", "test": "Inhibition of IFN-β- or dsRNA transfection-increased TLR3, PKR, MHC class I RNA in FRTL-5 thyrocytes (Northern/PCR)", "format": "cell-based, rat", "settings": "for % TLR3 Inhibition vs Control: 3 replicates", "procedure": "FIG. 4. Phenylmethimazole (C10) and Methimazole (MMI) inhibit the ability of IFN-β to increase TLR3, PKR, and MHC class I RNA levels in FRTL-5 thyrocytes. Cells were incubated with or without 100 U/ml of IFN-β for 3 hours in the presence of dimethyl sulfoxide (DMSO), C10, or MMI. DMSO is the vehicle control. Northern blots were performed with 20 ug of total RNA to detect TLR 3, PKR, MHC I, and GAPDH using radiolabeled cDNA probes. Data are representative of multiple experiments. As was the case for Poly (I:C) transfection in FIG. 2B, IFN-β increased TLR3.\nWe evaluated the ability of C10 and MMI to inhibit TLR3 expression and signaling. C10 prevented the ability of dsRNA transfection and incubation with IFN-β to increase TLR3RNA levels in FRTL-5 cells, as measured by PCR (FIG. 4A). […] DMSO is the vehicle for C10 because of the hydrophobicity of C10; it had no significant effect on basal activity and was used as the control value in all experiments described herein.\nThe C-10 and MMI reduced the ability of IFN-β to increase PKR and MHC class I RNA levels, albeit relatively less than TLR3 (FIG. 4B). […] We questioned the C10 mechanism of action.\nRNA Isolation and Northern Analysis. […] .\nRT-PCR. DNA was removed from total RNA using the DNA-free Kit (Ambion) according to the manufacturer's instructions. One μg of RNA was used to synthesize cDNA using the Advantage RT-for-PCR Kit (BD Biosciences) according to the manufacturer's protocol. Fifty ng of cDNA was subsequently used for PCR of TLR-3, and β-Actin; 250 ng of cDNA was used for PCR of IFN-β. The primers used for amplification of human TLR-3 and β-Actin have been previously described (K. U. Saikh, et al., Clin Diagn Lab Immunol, 10:1065-73 (2003))."}}, "data": [{"smiles": "Cn1c(-c2ccccc2)cnc1S", "note": "[Compound C10, 5-Phenylmethimazole]", "values": [{"measurement": "Survival % of Control", "setting": "mice; Ip freshly diluted in DMSO", "result": 100, "unit": "%"}, {"measurement": "Survival % of Control", "setting": "mice; Oral stored in excipient 1 week", "result": 100, "unit": "%"}, {"measurement": "NF-κB Luc Relative Luciferase Activity % of Control (±15%), +C10", "setting": "NF-κB; FRTL-5, Ligand IFN-β 100 U/ml", "result": "150 % of Control"}, {"measurement": "NF-κB Luc Relative Luciferase Activity % of Control (±15%), +C10", "setting": "NF-κB; FRTL-5, Ligand IFN-γ 1000 U/ml", "result": "180 % of Control"}, {"measurement": "NF-κB Luc Relative Luciferase Activity % of Control (±15%), +C10", "setting": "NF-κB; FRTL-5, Ligand IL-1β 10 ng/ml", "result": "350 % of Control"}, {"measurement": "NF-κB Luc Relative Luciferase Activity % of Control (±15%), +C10", "setting": "NF-κB; FRTL-5, Ligand LPS 100 ng/ml", "result": "250 % of Control"}, {"measurement": "NF-κB Luc Relative Luciferase Activity % of Control (±15%), +C10", "setting": "NF-κB; FRTL-5, Ligand None", "result": "100 % of Control"}, {"measurement": "NF-κB Luc Relative Luciferase Activity % of Control (±15%), +C10", "setting": "NF-κB; FRTL-5, Ligand Poly (I:C) 100 μg/ml", "result": "300 % of Control"}, {"measurement": "NF-κB Luc Relative Luciferase Activity % of Control (±15%), +C10", "setting": "NF-κB; FRTL-5, Ligand TNF-α 25 ng/ml", "result": "225 % of Control"}, {"measurement": "effect on Poly (I:C)-increased NF-κB-luciferase activity", "setting": "NF-κB; FRTL-5, 0.5 mM C10 or 5 mM MMI", "result": "minimal effect"}, {"measurement": "decrease of TLR3 and IFN-β-mRNA levels in thyrocytes vs solutions with DMSO", "setting": "TLR3; C10 stored in aqueous cyclodextrin preparation for 6 weeks prior to use", "result": "equally effective"}, {"measurement": "IFN-β increased MHC class I and PKR mRNA levels", "setting": "TLR3; FRTL-5, 100 U/ml IFN-β 3 hours", "result": "significantly decreased"}, {"measurement": "IFN-β-increased TLR3 RNA levels", "setting": "TLR3; FRTL-5, 100 U/ml IFN-β 3 hours, C10 0.5 mM, MMI 5 mM", "result": "totally prevented"}, {"measurement": "IFN-β increased MHC class I and PKR mRNA levels", "setting": "TLR3; FRTL-5, 100 U/ml IFN-β 3 hours, listed as C-10", "result": "reduced"}, {"measurement": "basal level of TLR 3 mRNA", "setting": "TLR3; FRTL-5, no IFN-β", "result": "slightly reduced"}, {"measurement": "% TLR3 Inhibition vs Control", "setting": "TLR3; IFN-β increased TLR3 RNA, C10 0.1 mM in Excip.", "result": 90, "unit": "%"}, {"measurement": "% TLR3 Inhibition vs Control", "setting": "TLR3; dsRNA increased TLR3 RNA, C10 0.1 mM in DMSO", "result": 90, "unit": "%"}]}]}
